The results in this text go back to the NIST ThermoML archive (doi:10.1016/j.jct.2011.11.025).

Structures are written as SMILES. Numbers after ± are expanded uncertainties.

A short description of the data set: activity coefficient (dimensionless); of the first substance listed, at infinite dilution; xn = mol fraction of the nth substance listed. The note with it: Liquid, Chromatography, x1 = 0.

`C=CCCCCCC` [oct-1-ene] + CCCCCCn1cc[n+](C)c1.N#C[B-](C#N)(C#N)C#N: the activity coefficient is 11.7 ± 0.5 (318.15 K); 11.1 ± 0.5 (328.15 K); 10.7 ± 0.5 (338.15 K); 10.3 ± 0.5 (348.15 K); 9.91 ± 0.46 (358.15 K); 9.64 ± 0.44 (368.15 K).

For the compound `CCCCCCCC` [octane] + CCCCCCn1cc[n+](C)c1.N#C[B-](C#N)(C#N)C#N, the activity coefficient by setting is: (318.15 K) 22.8 ± 1.1; (328.15 K) 21.1 ± 1; (338.15 K) 19.7 ± 0.9; (348.15 K) 18.6 ± 0.9; (358.15 K) 17.4 ± 0.8; (368.15 K) 16.6 ± 0.8.

Turning to `CCCC(C)=O` [pentan-2-one] + CCCCCCn1cc[n+](C)c1.N#C[B-](C#N)(C#N)C#N, the activity coefficient runs as follows: (318.15 K) 0.497 ± 0.033; (328.15 K) 0.513 ± 0.032; (338.15 K) 0.529 ± 0.032; (348.15 K) 0.544 ± 0.032; (358.15 K) 0.556 ± 0.032; (368.15 K) 0.572 ± 0.031.

As for `CCC(=O)CC` [pentan-3-one] + CCCCCCn1cc[n+](C)c1.N#C[B-](C#N)(C#N)C#N, the activity coefficient came out at 0.478 ± 0.033 (318.15 K); 0.498 ± 0.033 (328.15 K); 0.518 ± 0.032 (338.15 K); 0.536 ± 0.032 (348.15 K); 0.551 ± 0.032 (358.15 K); 0.569 ± 0.031 (368.15 K).

`CCCCC` [pentane] + CCCCCCn1cc[n+](C)c1.N#C[B-](C#N)(C#N)C#N: the activity coefficient (318.15 K) was 8.63 ± 0.4; the activity coefficient (328.15 K) worked out at 8.22 ± 0.38; the activity coefficient (338.15 K) was determined as 7.85 ± 0.36; the activity coefficient (348.15 K) was 7.61 ± 0.35; the activity coefficient (358.15 K) stood at 7.33 ± 0.34; the activity coefficient (368.15 K) came out at 7.13 ± 0.33.

For the compound `CCCO` [propan-1-ol] + CCCCCCn1cc[n+](C)c1.N#C[B-](C#N)(C#N)C#N, the activity coefficient is, setting by setting: (318.15 K) 1.19 ± 0.04; (328.15 K) 1.1 ± 0.03; (338.15 K) 1.02 ± 0.03; (348.15 K) 0.965 ± 0.026; (358.15 K) 0.913 ± 0.026; (368.15 K) 0.864 ± 0.027.

On to `CC(C)O` [propan-2-ol] + CCCCCCn1cc[n+](C)c1.N#C[B-](C#N)(C#N)C#N, for which the activity coefficient (318.15 K) is 1.2 ± 0.04; the activity coefficient (328.15 K) is 1.11 ± 0.03; the activity coefficient (338.15 K) was found to be 1.03 ± 0.03; the activity coefficient (348.15 K) came out at 0.961 ± 0.026; the activity coefficient (358.15 K) was 0.902 ± 0.026; the activity coefficient (368.15 K) was 0.852 ± 0.027.

As for `c1ccncc1` [pyridine] + CCCCCCn1cc[n+](C)c1.N#C[B-](C#N)(C#N)C#N, the activity coefficient was found to be 0.38 ± 0.034 (318.15 K); 0.389 ± 0.034 (328.15 K); 0.4 ± 0.034 (338.15 K); 0.408 ± 0.034 (348.15 K); 0.418 ± 0.034 (358.15 K); 0.429 ± 0.034 (368.15 K).

For `C=Cc1ccccc1` [styrene] + CCCCCCn1cc[n+](C)c1.N#C[B-](C#N)(C#N)C#N, the activity coefficient (328.15 K) amounted to 0.83 ± 0.03; the activity coefficient (338.15 K) was determined as 0.856 ± 0.027; the activity coefficient (348.15 K) was found to be 0.878 ± 0.027; the activity coefficient (358.15 K) amounted to 0.902 ± 0.026; the activity coefficient (368.15 K) came to 0.926 ± 0.026.

Take `C1CCOC1` [tetrahydrofuran] + CCCCCCn1cc[n+](C)c1.N#C[B-](C#N)(C#N)C#N: the activity coefficient was 0.453 ± 0.033 (318.15 K); 0.47 ± 0.033 (328.15 K); 0.485 ± 0.033 (338.15 K); 0.501 ± 0.032 (348.15 K); 0.513 ± 0.032 (358.15 K); 0.527 ± 0.032 (368.15 K).

`c1ccsc1` [thiophene] + CCCCCCn1cc[n+](C)c1.N#C[B-](C#N)(C#N)C#N: the activity coefficient (318.15 K) was found to be 0.636 ± 0.03; the activity coefficient (328.15 K) worked out at 0.647 ± 0.03; the activity coefficient (338.15 K) stood at 0.657 ± 0.03; the activity coefficient (348.15 K) amounted to 0.666 ± 0.03; the activity coefficient (358.15 K) came to 0.678 ± 0.03; the activity coefficient (368.15 K) stood at 0.689 ± 0.03.
